The target in the test is furin (Homo sapiens, UniProt P09958). Nature of the test: fluorogenic furin protease assay (BPS Bioscience kit), IC50 in triplicate. The test is classed as biochemical. The note with it: read-out: Biological Activity ^2 [IC50; μM] ^3 or % Inhibition ^4.

In general, IC50 refers to the concentration that inhibits the measured activity by half.

Each structure is given as a SMILES string.

Sequence of furin (P09958 108-794): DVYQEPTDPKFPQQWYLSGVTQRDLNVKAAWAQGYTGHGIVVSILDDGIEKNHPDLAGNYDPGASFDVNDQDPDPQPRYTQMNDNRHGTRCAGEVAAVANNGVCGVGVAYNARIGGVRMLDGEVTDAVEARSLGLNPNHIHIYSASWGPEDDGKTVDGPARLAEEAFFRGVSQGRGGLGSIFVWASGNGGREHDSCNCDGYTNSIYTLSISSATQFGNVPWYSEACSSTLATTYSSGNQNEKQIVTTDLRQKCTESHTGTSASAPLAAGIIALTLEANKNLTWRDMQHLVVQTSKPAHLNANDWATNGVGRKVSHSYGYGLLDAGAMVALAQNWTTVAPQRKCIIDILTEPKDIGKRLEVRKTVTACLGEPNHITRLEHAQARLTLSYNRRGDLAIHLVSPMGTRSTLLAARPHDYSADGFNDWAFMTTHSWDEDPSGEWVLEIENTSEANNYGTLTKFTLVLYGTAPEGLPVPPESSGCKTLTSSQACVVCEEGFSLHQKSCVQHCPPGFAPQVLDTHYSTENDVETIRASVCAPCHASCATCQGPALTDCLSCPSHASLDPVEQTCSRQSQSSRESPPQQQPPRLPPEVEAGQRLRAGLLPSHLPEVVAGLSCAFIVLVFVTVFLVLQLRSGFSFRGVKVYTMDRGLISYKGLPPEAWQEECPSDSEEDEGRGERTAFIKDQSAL

Take `COc1ccccc1/C=C1/SC(=S)N(CCC(=O)Nc2ccc(S(=O)(=O)Nc3nccs3)cc2)C1=O` [compound 4, N-[4-(1,3-thiazol-2-ylaminosulfonyl)phenyl]-3-{(E)-5-[(2-methoxyphenyl)methylene]-4-oxo-2-thioxo-1,3-thiazolidin-3-yl}propionamide]: the IC50 came to 17.6 ± 2.29 µM.

(Values after paper PMC11859198, “Identification of Furin Protease Small-Molecule Inhibitor with a 1,3-Thiazol-2-ylaminosulfonyl Scaffold” (Pharmaceuticals, 2025).)
